Measured values as given in patent US12252524B2, “GIP/GLP1 co-agonist compounds” (Eli Lilly and Company, priority 2018, dated 2025).
Numbered stars: 1 amine (or outer) side, 2 acyl side, 3 side chain; on linkers, the order of the positions; unused ones are H or OH. Square brackets hold non-standard residues; d marks the D form. Side chains are listed from the residue outwards. Peptide text beside a SMILES is read from it. * marks the point of attachment. C20 diacid = O=C(O)CCCCCCCCCCCCCCCCCCC(=O)*; αMePhe(2-F) = C[C@](N)(Cc1ccccc1F)C(=O)O; γGlu = O=C(O)[C@H](CCC(=O)[*:2])N[*:1]; αMeY = C[C@](N)(Cc1ccc(O)cc1)C(=O)O; αMeF = C[C@](N)(Cc1ccccc1)C(=O)O; 4Pal = N[C@@H](Cc1ccncc1)C(=O)O; αMeL = CC(C)C[C@](C)(N)C(=O)O; Orn = NCCC[C@H](N)C(=O)O; AEEA = NCCOCCOCC(=O)O; Aib = CC(C)(N)C(=O)O

Columns and labels:
human GIP receptor = target: T1, human GIP receptor (Homo sapiens, UniProt P48546); assay: [125I]-GIP binding (SPA), human GIP receptor; details: read-out: hGIPR Ki, nM (SEM, n)
T1 construct: expressed in transfected cells; crude membranes
T1 sequence (P48546 22-466): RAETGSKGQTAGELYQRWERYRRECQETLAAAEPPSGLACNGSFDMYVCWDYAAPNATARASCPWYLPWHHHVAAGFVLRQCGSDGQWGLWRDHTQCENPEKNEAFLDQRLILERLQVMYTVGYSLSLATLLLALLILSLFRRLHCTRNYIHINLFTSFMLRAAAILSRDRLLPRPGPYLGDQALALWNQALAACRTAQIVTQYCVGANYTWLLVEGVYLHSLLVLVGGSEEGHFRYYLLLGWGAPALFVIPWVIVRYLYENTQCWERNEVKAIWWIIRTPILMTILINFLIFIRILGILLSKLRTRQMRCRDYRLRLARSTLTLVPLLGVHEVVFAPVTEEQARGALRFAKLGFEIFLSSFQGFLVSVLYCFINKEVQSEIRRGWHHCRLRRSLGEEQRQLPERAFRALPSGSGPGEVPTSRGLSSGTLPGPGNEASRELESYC
Experimental: (§1) Two methods are used for the preparation of crude cell membranes.
(§2) Method 1: Frozen cell pellets are lysed on ice in hypotonic buffer containing 50 mM Tris HCl, pH 7.5, and Roche Complete™ Protease Inhibitors with EDTA. The cell suspension is disrupted using a glass Potter-Elvehjem homogenizer fitted with a Teflon® pestle for 25 strokes. The homogenate is centrifuged at 4° C. at 1100×g for 10 minutes. The supernatant is collected and stored on ice while the pellets are resuspended in homogenization buffer and rehomogenized as described above. The homogenate is centrifuged at 1100×g for 10 minutes. The second supernatant is combined with the first supernatant and centrifuged at 35000×g for 1 hour at 4° C. The resulting membrane pellet is resuspended in homogenization buffer containing protease inhibitors at approximately 1 to 3 mg/mL, quick frozen in liquid nitrogen and stored as aliquots in a−80° C. freezer until use.
(§3) Method 2: Frozen cell pellets are lysed on ice in hypotonic buffer containing 50 mM Tris HCl, pH 7.5, 1 mM MgCl2, Roche Complete™ EDTA-free Protease Inhibitors and 25 units/ml DNAse I (Invitrogen). The cell suspension is disrupted using a glass Potter-Elvehjem homogenizer fitted with a Teflon® pestle for 20 to 25 strokes. The homogenate is centrifuged at 4° C. at 1800×g for 15 minutes. The supernatant is collected and stored on ice while the pellets are resuspended in homogenization buffer (without DNAse I) and rehomogenized as described above. The homogenate is centrifuged at 1800×g for 15 minutes. The second supernatant is combined with the first supernatant and centrifuged an additional time at 1800×g for 15 minutes. The overall supernatant is then centrifuged at 25000×g for 30 minutes at 4° C. The resulting membrane pellet is resuspended in homogenization buffer (without DNAse I) containing protease inhibitors at approximately 1 to 3 mg/mL and stored as aliquots in a−80° C. freezer until use.
The binding buffer contains 25 mM HEPES, pH 7.4, 2.5 mM CaCl2, 1 mM MgCl2, 0.1% (w/v) bacitracin, 0.003% (w/v) TWEEN©-20, and Roche Complete™ Protease Inhibitors without EDTA. Peptides and GIP are thawed and 3 fold serially diluted in 100% DMSO (10 point concentration response curves). […] Plates are sealed and mixed on a plate shaker (setting 6) for 1 minute and read with a PerkinElmer Trilux MicroBeta© scintillation counter after 2.5 to 12 hours of incubation/settling time at room temperature.
(§4) Data are analyzed using four-parameter (curve maximum, curve minimum, IC50, Hill slope) nonlinear regression routines (Genedata Screener, version 12.0.4, Genedata AG, Basal, Switzerland). […] Values for Ki are reported as the geometric mean, with error expressed as the standard error of the mean (SEM) and n is equal to the number of independent replicates (determined in assays performed on different days). […] The Ki Ratio is a rapid indication of the apparent affinity of a peptide compared to the native control peptide. […] SEM is only calculated when n=2 or greater non-qualified results exist. Means are expressed as GeoMetric means with the standard error of the mean (SEM) and the number of replicates (n) indicated in parenthesis.

[1] = target: human GLP-1 receptor (GLP-1R) (Homo sapiens, UniProt P43220); assay: cAMP pharmacological functional assay in presence of casein, hGLP-1R; format: cell-based; details: HEK293 cells expressing hGLP-1R, 0.1% Casein, geometric mean; read-out: hGLP1R cAMP Rel EC50 nM (SEM, n)
Sequence of human GLP-1 receptor (GLP-1R) (P43220 24-463): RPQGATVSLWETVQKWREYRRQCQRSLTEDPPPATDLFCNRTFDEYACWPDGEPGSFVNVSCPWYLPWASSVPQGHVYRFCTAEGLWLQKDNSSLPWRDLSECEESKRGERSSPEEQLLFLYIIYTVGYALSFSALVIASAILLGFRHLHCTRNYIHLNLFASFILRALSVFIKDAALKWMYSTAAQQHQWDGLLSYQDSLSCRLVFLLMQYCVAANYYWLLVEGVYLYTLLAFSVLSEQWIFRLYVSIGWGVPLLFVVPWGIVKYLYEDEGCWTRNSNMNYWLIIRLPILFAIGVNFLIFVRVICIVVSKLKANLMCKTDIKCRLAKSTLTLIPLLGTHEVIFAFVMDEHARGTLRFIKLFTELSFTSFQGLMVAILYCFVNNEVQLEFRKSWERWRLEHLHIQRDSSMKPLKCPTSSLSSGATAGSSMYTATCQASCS

human Gcg receptor = target: T2, human Gcg receptor (Homo sapiens, UniProt P47871); assay: [125I]-Glucagon binding (SPA), human Gcg receptor; details: read-out: hGLcgR Ki, nM (SEM, n)
T2 construct: expressed in transfected cells; crude membranes
T2 sequence (P47871 26-477): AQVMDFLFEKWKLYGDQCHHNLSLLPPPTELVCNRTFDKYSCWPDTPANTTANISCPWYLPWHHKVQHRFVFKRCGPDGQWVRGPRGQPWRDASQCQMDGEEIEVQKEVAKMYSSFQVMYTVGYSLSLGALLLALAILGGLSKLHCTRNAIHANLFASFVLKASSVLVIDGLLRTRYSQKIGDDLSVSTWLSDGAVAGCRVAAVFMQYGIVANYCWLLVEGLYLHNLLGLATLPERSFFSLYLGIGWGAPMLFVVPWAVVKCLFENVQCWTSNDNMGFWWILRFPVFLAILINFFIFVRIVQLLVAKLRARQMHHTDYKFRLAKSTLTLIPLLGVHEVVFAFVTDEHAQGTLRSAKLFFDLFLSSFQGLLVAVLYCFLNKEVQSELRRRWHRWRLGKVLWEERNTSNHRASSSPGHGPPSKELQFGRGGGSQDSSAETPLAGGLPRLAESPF
Experimental: as §1, §2, §3
The human Gcg receptor binding assays are performed using a Scintillation Proximity Assay (SPA) format with wheat germ agglutinin (WGA) beads (Perkin Elmer). The binding buffer contains 25 mM 4-(2-hydroxyethyl)-1-piperazineethanesulfonic acid (HEPES), pH 7.4, 2.5 mM CaCl2, 1 mM MgCl2, 0.1% (w/v) bacitracin (Research Products), 0.003% (w/v) Polyoxyethylenesorbitan monolaurate (TWEEN©-20), and Roche Complete™ Protease Inhibitors without EDTA. […] Plates are sealed and mixed on a plate shaker (setting 6) for 1 minute and read with a PerkinElmer Trilux MicroBeta© scintillation counter after 12 hours of incubation/settling time at room temperature.
as §4

[2] = target: T3, gastric inhibitory peptide receptor (GIPR) (Homo sapiens, UniProt P48546); assay: cAMP pharmacological functional assay in presence of casein, hGIPR; format: cell-based; details: HEK293 cells expressing hGIPR, 0.1% Casein, geometric mean; read-out: hGIPR cAMP Rel EC50 nM (SEM, n)
T3 sequence (P48546 22-466): T1 sequence (P48546 22-466)

| Structure (SMILES) | Ki (human GIP receptor) [nM] | EC50 [1] [nM] | Ki (human Gcg receptor) [nM] | EC50 [2] [nM] |
| --- | --- | --- | --- | --- |
| CC[C@H](C)[C@H](NC(=O)[C@H](CC(C)C)NC(=O)[C@H](Cc1ccc(O)cc1)NC(=O)[C@H](CCC(=O)O)NC(=O)[C@@H](NC(=O)[C@H](Cc1ccccc1)NC(=O)[C@@H](NC(=O)C(C)(C)NC(=O)[C@H](CCC(N)=O)NC(=O)[C@H](C)NC(=O)[C@H](CCCCNC(=O)COCCOCCNC(=O)COCCOCCNC(=O)CC[C@H](NC(=O)CCCCCCCCCCCCCCCCCCC(=O)O)C(=O)O)NC(=O)[C@H](CCCCN)NC(=O)[C@H](CC(=O)O)NC(=O)[C@H](CC(C)C)NC(=O)[C@](C)(CC(C)C)NC(=O)[C@@H](NC(=O)[C@H](CO)NC(=O)[C@H](Cc1ccc(O)cc1)NC(=O)[C@H](CC(=O)O)NC(=O)[C@H](CO)NC(=O)[C@@H](NC(=O)[C@](C)(Cc1ccccc1)NC(=O)[C@@H](NC(=O)CNC(=O)[C@H](CCC(=O)O)NC(=O)C(C)(C)NC(=O)[C@@H](N)Cc1ccc(O)cc1)[C@@H](C)O)[C@@H](C)O)[C@@H](C)CC)[C@@H](C)O)[C@@H](C)CC)C(=O)N[C@@H](CCC(=O)O)C(=O)NCC(=O)NCC(=O)N1CCC[C@H]1C(=O)N[C@@H](CO)C(=O)N[C@@H](CO)C(=O)NCC(=O)N[C@@H](C)C(=O)N1CCC[C@H]1C(=O)N1CCC[C@H]1C(=O)N1CCC[C@H]1C(=O)N[C@@H](CO)C(N)=O [Example 139] (H-Y[Aib]EGT[αMeF]TSDYSI[αMeL]LDKK([AEEA-AEEA-γGlu-C20 diacid])AQ[Aib]TFIEYLIEGGPSSGAPPPS-NH2) | 0.036 | 0.0417 | 105 | 0.037 |
| CC[C@H](C)[C@H](NC(=O)[C@H](CC(C)C)NC(=O)[C@](C)(Cc1ccc(O)cc1)NC(=O)[C@@H](CCC(=O)O)NC(=O)[C@@H](NC(=O)[C@H](Cc1ccccc1)NC(=O)[C@H](CCC(=O)O)NC(=O)C(C)(C)NC(=O)[C@H](CCC(N)=O)NC(=O)[C@H](C)NC(=O)[C@H](CCC(N)=O)NC(=O)[C@H](CCCN)NC(=O)[C@H](CC(=O)O)NC(=O)[C@H](CC(C)C)NC(=O)[C@](C)(CC(C)C)NC(=O)[C@@H](NC(=O)[C@H](CO)NC(=O)[C@H](Cc1ccncc1)NC(=O)[C@H](CC(=O)O)NC(=O)[C@H](CO)NC(=O)[C@@H](NC(=O)[C@](C)(Cc1ccccc1F)NC(=O)[C@@H](NC(=O)CNC(=O)[C@H](CCC(=O)O)NC(=O)C(C)(C)NC(=O)[C@@H](N)Cc1ccc(O)cc1)[C@@H](C)O)[C@@H](C)O)[C@@H](C)CC)[C@@H](C)CC)C(=O)N[C@@H](CCC(=O)O)C(=O)NCC(=O)NCC(=O)N1CCC[C@H]1C(=O)N[C@@H](CO)C(=O)N[C@@H](CO)C(=O)NCC(=O)N[C@@H](C)C(=O)N1CCC[C@H]1C(=O)N1CCC[C@H]1C(=O)N1CCC[C@H]1C(=O)N[C@@H](CO)C(N)=O [Example 285] (H-Y[Aib]EGT[αMePhe(2-F)]TSD[4Pal]SI[αMeL]LD[Orn]QAQ[Aib]EFI[dE][αMeY]LIEGGPSSGAPPPS-NH2) |  | 0.072 |  | 0.0884 |
| CC[C@H](C)[C@H](NC(=O)[C@H](CC(C)C)NC(=O)[C@](C)(Cc1ccc(O)cc1)NC(=O)[C@@H](CCC(=O)O)NC(=O)[C@@H](NC(=O)[C@H](Cc1ccccc1)NC(=O)[C@H](CCC(=O)O)NC(=O)C(C)(C)NC(=O)[C@H](CCC(N)=O)NC(=O)[C@H](C)NC(=O)[C@H](CCCCN)NC(=O)[C@H](CCCN)NC(=O)[C@H](CC(=O)O)NC(=O)[C@H](CC(C)C)NC(=O)[C@](C)(CC(C)C)NC(=O)[C@@H](NC(=O)[C@H](CO)NC(=O)[C@H](Cc1ccncc1)NC(=O)[C@H](CC(=O)O)NC(=O)[C@H](CO)NC(=O)[C@@H](NC(=O)[C@](C)(Cc1ccccc1F)NC(=O)[C@@H](NC(=O)CNC(=O)[C@H](CCC(=O)O)NC(=O)C(C)(C)NC(=O)[C@@H](N)Cc1ccc(O)cc1)[C@@H](C)O)[C@@H](C)O)[C@@H](C)CC)[C@@H](C)CC)C(=O)N[C@@H](CCC(=O)O)C(=O)NCC(=O)NCC(=O)N1CCC[C@H]1C(=O)N[C@@H](CO)C(=O)N[C@@H](CO)C(=O)NCC(=O)N[C@@H](C)C(=O)N1CCC[C@H]1C(=O)N1CCC[C@H]1C(=O)N1CCC[C@H]1C(=O)N[C@@H](CO)C(=O)N[C@@H](CS)C(N)=O [Example 286] (H-Y[Aib]EGT[αMePhe(2-F)]TSD[4Pal]SI[αMeL]LD[Orn]KAQ[Aib]EFI[dE][αMeY]LIEGGPSSGAPPPSC-NH2) |  | 0.0602 |  | 0.184 |
| CC[C@H](C)[C@H](NC(=O)[C@H](CC(C)C)NC(=O)[C@](C)(Cc1ccc(O)cc1)NC(=O)[C@@H](CCC(=O)O)NC(=O)[C@@H](NC(=O)[C@H](Cc1ccccc1)NC(=O)[C@H](CCC(=O)O)NC(=O)C(C)(C)NC(=O)[C@H](CCC(N)=O)NC(=O)[C@H](C)NC(=O)[C@H](CCC(N)=O)NC(=O)[C@H](CCCN)NC(=O)[C@H](CC(=O)O)NC(=O)[C@H](CC(C)C)NC(=O)[C@](C)(CC(C)C)NC(=O)[C@@H](NC(=O)[C@H](CO)NC(=O)[C@H](Cc1ccncc1)NC(=O)[C@H](CC(=O)O)NC(=O)[C@H](CO)NC(=O)[C@@H](NC(=O)[C@](C)(Cc1ccccc1F)NC(=O)[C@@H](NC(=O)CNC(=O)[C@H](CCC(=O)O)NC(=O)C(C)(C)NC(=O)[C@@H](N)Cc1ccc(O)cc1)[C@@H](C)O)[C@@H](C)O)[C@@H](C)CC)[C@@H](C)CC)C(=O)N[C@@H](CCC(=O)O)C(=O)NCC(=O)NCC(=O)N1CCC[C@H]1C(=O)N[C@@H](CO)C(=O)N[C@@H](CO)C(=O)NCC(=O)N[C@@H](C)C(=O)N1CCC[C@H]1C(=O)N1CCC[C@H]1C(=O)N1CCC[C@H]1C(=O)N[C@@H](CO)C(=O)N[C@@H](CS)C(N)=O [Example 287] (H-Y[Aib]EGT[αMePhe(2-F)]TSD[4Pal]SI[αMeL]LD[Orn]QAQ[Aib]EFI[dE][αMeY]LIEGGPSSGAPPPSC-NH2) |  | 0.112 |  | 0.15 |
